From patent publication US20210139484A1, “DIHYDROISOQUINOLINE-2(1H)-CARBOXAMIDE AND RELATED COMPOUNDS AND THEIR USE IN TREATING MEDICAL CONDITIONS” (GOSSAMER BIO SERVICES, INC., priority 2018, published 2021)

Molecular target: T1, human HPK1 protein (Homo sapiens, UniProt Q92918)
T1 construct: recombinant human HPK1 protein (a.a. 1-346) was expressed in Sf9 insect cells; GST (N); purchased Signalchem M23-11G; host or cells: Sf9 insect cells (baculovirus)
T1 sequence (Q92918 1-346): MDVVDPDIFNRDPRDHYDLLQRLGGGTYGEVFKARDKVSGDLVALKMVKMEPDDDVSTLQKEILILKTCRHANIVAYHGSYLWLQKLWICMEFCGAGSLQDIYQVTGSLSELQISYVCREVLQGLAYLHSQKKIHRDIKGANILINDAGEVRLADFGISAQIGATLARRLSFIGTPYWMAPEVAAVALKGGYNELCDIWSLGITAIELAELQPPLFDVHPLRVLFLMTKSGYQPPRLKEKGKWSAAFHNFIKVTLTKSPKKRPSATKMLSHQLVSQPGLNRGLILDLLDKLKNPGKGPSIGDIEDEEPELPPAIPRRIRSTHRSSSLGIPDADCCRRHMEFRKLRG
Experiment: Human HPK1 protein TR-FRET assay
Format: biochemical
Details: 1 mM ATP, Table 20
How it was run: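 Read-out was TR-FRET using Eu-labeled anti-phospho-CREB (Ser133) antibody, with the 665/615 nm signal ratio normalised to DMSO-only wells and fitted by a 4-parameter logistic model for IC50. Reactions held 10 nM Sf9-expressed GST-HPK1 (a.a. 1-346), 100 nM CREBtide and 1 mM ATP, run 60 minutes at room temperature, pH 7.5.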

| SMILES | IC50 |
| --- | --- |
| CC[C@H]1CN(C(=O)Nc2ccc(CN3CCNCC3)c(C(F)(F)F)c2)Cc2cc(Oc3ccnn4cc(C(=O)NC)cc34)cnc21 [XIV-125] | < 500 nM |
| CC[C@H]1CN(C(=O)Nc2ccc(CN3CCNCC3)c(C(F)(F)F)c2)Cc2cc(Oc3ncnc4[nH]c(C(=O)N(C)C)cc34)cnc21 [XIV-126] | < 500 nM |
| CC[C@H]1CN(C(=O)Nc2ccc(CN3CCNCC3)c(C(F)(F)F)c2)Cc2cc(Oc3ncnc4[nH]c(C(=O)NC)cc34)cnc21 [XIV-127] | < 500 nM |
| CC[C@H]1CN(C(=O)Nc2ccc(CN3CCNCC3)c(C(F)(F)F)c2)Cc2cc(Oc3ccnn4cc(C(=O)NC)nc34)cnc21 [XIV-129] | 500 to 5000 nM |
| CC[C@H]1CN(C(=O)Nc2ccc(CN3CCNCC3)c(C(F)(F)F)c2)Cc2cc(Oc3ccnc4[nH]c(-c5n[nH]c(=O)o5)cc34)cnc21 [XIV-130] | < 500 nM |
| CC[C@H]1CN(C(=O)Nc2ccc(CN3CCN(CC)CC3)c(C(F)(F)F)c2)Cc2cc(Oc3ccnc4[nH]c(C(=O)N(C)C)cc34)cnc21 [XIV-131] | < 500 nM |
| CC[C@H]1CN(C(=O)Nc2ccc(CN3CCN(C)CC3)c(C(F)(F)F)c2)Cc2cc(Oc3ccnc4[nH]c(-c5noc(=O)[nH]5)cc34)cnc21 [XIV-132] | < 500 nM |
| CC[C@H]1CN(C(=O)Nc2ccc(CN3CCN(C)CC3)c(C(F)(F)F)c2)Cc2cc(Oc3ccnc4[nH]c(-c5noc(C)n5)cc34)cnc21 [XIV-133] | < 500 nM |
| CC[C@H]1CN(C(=O)Nc2ccc(CN3CCNCC3)c(C(F)(F)F)c2)Cc2cc(Oc3ccnc4[nH]c(-c5noc(=O)[nH]5)cc34)cnc21 [XIV-135] | < 500 nM |
| CC[C@H]1CN(C(=O)Nc2ccc(CN3CCNCC3)c(C(F)(F)F)c2)Cc2cc(Oc3ccnc4[nH]c(-c5noc(C)n5)cc34)cnc21 [XIV-136] | < 500 nM |
| CC[C@H]1CN(C(=O)Nc2cc(C(F)(F)F)c(CN3CCN(C)CC3)cc2F)Cc2cc(Oc3ccnc4[nH]c(C(=O)N(C)C)cc34)cnc21 [XIV-137] | < 500 nM |
| CC[C@H]1CN(C(=O)Nc2ccc(CN3CCN(CCF)CC3)c(C(F)(F)F)c2)Cc2cc(Oc3ccnc4[nH]c(C(=O)N(C)C)cc34)cnc21 [XIV-138] | < 500 nM |
| CC[C@H]1CN(C(=O)Nc2ccc(CN3CCN(CC(F)F)CC3)c(C(F)(F)F)c2)Cc2cc(Oc3ccnc4[nH]c(C(=O)N(C)C)cc34)cnc21 [XIV-139] | 500 to 5000 nM |
| CC[C@H]1CN(C(=O)Nc2ccc(CN3CCN(CC(F)(F)F)CC3)c(C(F)(F)F)c2)Cc2cc(Oc3ccnc4[nH]c(C(=O)N(C)C)cc34)cnc21 [XIV-140] | > 10000 nM |
| CC[C@H]1CN(C(=O)Nc2ccc(CN3CCN(C)CC3)c(C(F)(F)F)c2)Cc2cc(Oc3c(F)cnc4[nH]c(C(=O)N(C)C)cc34)cnc21 [XIV-143] | < 500 nM |
| CC[C@H]1CN(C(=O)Nc2ccc(CN3CCN(C)CC3)c(C(F)(F)F)c2)Cc2cc(Oc3ncnn4cc(C(=O)N(C)C)cc34)cnc21 [XIV-144] | < 500 nM |
| CC[C@H]1CN(C(=O)Nc2ccc(CN3CCNCC3)c(C(F)(F)F)c2)Cc2cc(Oc3c(F)cnc4[nH]c(C(=O)N(C)C)cc34)cnc21 [XIV-145] | < 500 nM |
| CC[C@H]1CN(C(=O)Nc2ccc(CN3CCNCC3)c(C(F)(F)F)c2)Cc2cc(Oc3ncnn4cc(C(=O)N(C)C)cc34)cnc21 [XIV-146] | < 500 nM |
| CC[C@H]1CN(C(=O)Nc2ccc(CN3CCN(C)CC3)c(C(F)(F)F)c2)Cc2cc(Oc3ccnc4[nH]c(-c5cc[nH]n5)cc34)cnc21 [XIV-148] | < 500 nM |
| CC[C@H]1CN(C(=O)Nc2ccc(CN3CCN(C)CC3)c(C(F)(F)F)c2)Cc2cc(Oc3ccnc4[nH]c(-c5cn[nH]c5)cc34)cnc21 [XIV-149] | < 500 nM |
| CC[C@H]1CN(C(=O)Nc2ccc(CN3CCN(C)CC3)c(C(F)(F)F)c2)Cc2cc(Oc3ccnc4[nH]c(CS(C)(=O)=O)cc34)cnc21 [XIV-150] | < 500 nM |
| CC[C@H]1CN(C(=O)Nc2ccc(CN3CCN(C)CC3)c(C(F)(F)F)c2)Cc2cc(Oc3ccnc4[nH]c(C5=CCOC5)cc34)cnc21 [XIV-151] | < 500 nM |
| C=C(C)c1cc2c(Oc3cnc4c(c3)CN(C(=O)Nc3ccc(CN5CCN(C)CC5)c(C(F)(F)F)c3)C[C@@H]4CC)ccnc2[nH]1 [XIV-152] | < 500 nM |
| CC[C@H]1CN(C(=O)Nc2ccc(CN3CCN(C)CC3)c(C(F)(F)F)c2)Cc2cc(Oc3ccnc4[nH]c(C(C)C)cc34)cnc21 [XIV-153] | < 500 nM |
| CCC1CN(C(=O)Nc2ccc(CN3CCN(CC)CC3)c(C(F)(F)F)c2)Cc2cc(Oc3ccnc4[nH]c(C5=CCN(C(=O)C6CC6)CC5)cc34)cnc21 (stereo not shown) [XIV-155] | < 500 nM |
| CC[C@@H]1CN(C(=O)Nc2ccc(CN3CCN(C)CC3)c(C(F)F)c2)Cc2cc(Oc3ncnc4[nH]c(C5CC5)cc34)ccc21 [XV-1] | < 500 nM |
| CC[C@H]1CN(C(=O)Nc2ccc(CN3CCN(CCO)CC3)c(C(F)F)c2)Cc2cc(Oc3ncnc4[nH]c(C5CC5)cc34)ccc21 [XV-2] | < 500 nM |
| CC[C@@H]1CN(C(=O)Nc2ccc(CN3CCNCC3)c(C(F)(F)F)c2)Cc2cc(Oc3ccnc4[nH]c(CO)cc34)ccc21 [XV-4] | < 500 nM |

| SMILES | IC50 |
| --- | --- |
| CC[C@H]1CN(C(=O)Nc2ccc(CN3CCNCC3)c(C(F)(F)F)c2)Cc2cc(Oc3ccnc4[nH]c(CO)cc34)ccc21 [XV-5] | < 500 nM |
| CC[C@@H]1CN(C(=O)Nc2ccc(CN3CCN(CCO)CC3)c(C(F)(F)F)c2)Cc2cc(Oc3ccnc4[nH]c(CO)cc34)ccc21 [XV-6] | < 500 nM |
| CC[C@@H]1CN(C(=O)Nc2ccc(CN3CCN(CCO)CC3)c(C(F)F)c2)Cc2cc(Oc3ccnc4[nH]c(CO)cc34)ccc21 [XV-7] | < 500 nM |
| CC[C@@H]1CN(C(=O)Nc2ccc(CN3CCN(C)CC3)c(C(F)F)c2)Cc2cc(Oc3ccnc4[nH]c(CO)cc34)ccc21 [XV-8] | < 500 nM |
| CC[C@@H]1CN(C(=O)Nc2ccc(CN3CCNCC3)c(C(F)(F)F)c2)Cc2cc(Oc3ccnc4[nH]c(C5(O)COC5)cc34)ccc21 [XV-10] | < 500 nM |
| CC[C@@H]1CN(C(=O)Nc2ccc(CN3CCN(C)CC3)c(C(F)(F)F)c2)Cc2cc(Oc3ccnc4[nH]c(C5(O)COC5)cc34)ccc21 [XV-12] | < 500 nM |
| CC[C@@H]1CN(C(=O)Nc2ccc(CN3CCN(C)CC3)c(C(F)F)c2)Cc2cc(Oc3ccnc4[nH]c(C5(O)COC5)cc34)ccc21 [XV-14] | < 500 nM |
| CC[C@@H]1CN(C(=O)Nc2ccc(CN3CCNCC3)c(C(F)(F)F)c2)Cc2cc(Oc3ccnc4[nH]c(C#N)cc34)ccc21 [XV-16] | < 500 nM |
| CC[C@H]1CN(C(=O)Nc2ccc(CN3CCNCC3)c(C(F)(F)F)c2)Cc2cc(Oc3ccnc4[nH]c(C#N)cc34)ccc21 [XV-17] | < 500 nM |
| CC[C@@H]1CN(C(=O)Nc2ccc(CN3CCN(C)CC3)c(C(F)F)c2)Cc2cc(Oc3ccnc4[nH]c(C#N)cc34)ccc21 [XV-18] | < 500 nM |
| CC[C@@H]1CN(C(=O)Nc2ccc(CN3CCN(CCO)CC3)c(C(F)F)c2)Cc2cc(Oc3ccnc4[nH]c(C#N)cc34)ccc21 [XV-20] | < 500 nM |
| CC[C@H]1CN(C(=O)Nc2ccc(CN3CCN(CCO)CC3)c(C(F)F)c2)Cc2cc(Oc3ccnc4[nH]c(C#N)cc34)ccc21 [XV-21] | < 500 nM |
| CC[C@H]1CN(C(=O)Nc2ccc(CN3CCN(CCO)CC3)c(C(F)(F)F)c2)Cc2cc(Oc3ccnc4[nH]c(CO)cc34)ccc21 [XV-22] | < 500 nM |
| CC[C@@H]1CN(C(=O)Nc2ccc(CN3CCN(CCO)CC3)c(C(F)F)c2)Cc2cc(Oc3ccnc4[nH]c(C5CC5)cc34)ccc21 [XV-24] | < 500 nM |
| CC[C@@H]1CN(C(=O)Nc2ccc(CN3CCN(CCO)CC3)c(C(F)(F)F)c2)Cc2cc(Oc3ccnc4[nH]c(C5CC5)cc34)ccc21 [XV-26] | < 500 nM |
| CC[C@H]1CN(C(=O)Nc2ccc(CN3CCN(C)CC3)c(C(F)(F)F)c2)Cc2cc(Oc3ccnc4[nH]c(C#N)cc34)ccc21 [XV-28] | < 500 nM |
| CC[C@H]1CN(C(=O)Nc2ccc(CN3CCN(C)CC3)c(C(F)(F)F)c2)Cc2cc(Oc3ccnc4[nH]c(C(N)=O)cc34)ccc21 [XV-30] | < 500 nM |
| C[C@H]1CN(C(=O)Nc2ccc(CN3CCN(C)CC3)c(C(F)(F)F)c2)Cc2cc(Oc3ccnc4[nH]c(C(N)=O)cc34)ccc21 [XV-31] | < 500 nM |
| C[C@H]1CN(C(=O)Nc2ccc(CN3CCN(C)CC3)c(C(F)(F)F)c2)Cc2cc(Oc3ccnc4[nH]c(C5(O)COC5)cc34)ccc21 [XV-32] | < 500 nM |
| C[C@H]1CN(C(=O)Nc2ccc(CN3CCN(C)CC3)c(C(F)F)c2)Cc2cc(Oc3ccnc4[nH]c(C5(O)COC5)cc34)ccc21 [XV-33] | < 500 nM |
| C[C@H]1CN(C(=O)Nc2ccc(CN3CCN(C)CC3)c(C(F)(F)F)c2)Cc2cc(Oc3ccnc4[nH]c(C#N)cc34)ccc21 [XV-34] | < 500 nM |
| C[C@H]1CN(C(=O)Nc2ccc(CN3CCN(CCO)CC3)c(C(F)(F)F)c2)Cc2cc(Oc3ccnc4[nH]c(C#N)cc34)ccc21 [XV-36] | < 500 nM |
| C[C@H]1CN(C(=O)Nc2ccc(CN3CCN(C)CC3)c(C(F)(F)F)c2)Cc2cc(Oc3c(F)cnc4[nH]c(CO)cc34)ccc21 [XV-38] | < 500 nM |
| C[C@H]1CN(C(=O)Nc2ccc(CN3CCN(C)CC3)c(C(F)(F)F)c2)Cc2cc(Oc3c(F)cnc4[nH]c(C(=O)N(C)C)cc34)ccc21 [XV-39] | < 500 nM |
| CCC1CN(C(=O)Nc2ccc(CN3CCN(CC)CC3)c(C(F)(F)F)c2)Cc2cc(Oc3ccnc4[nH]c(C5CCN(C(=O)C6CC6)CC5)cc34)ccc21 (stereo not shown) [XV-40] | < 500 nM |
| CC[C@H]1CN(C(=O)Nc2ccc(CN3CCN(CCO)CC3)c(C(F)F)c2)Cc2cc(Oc3ccnc4[nH]c(C(N)=O)cc34)ccc21 [XV-41] | < 500 nM |
| CC[C@@H]1CN(C(=O)Nc2ccc(CN3CCN(CCO)CC3)c(C(F)F)c2)Cc2cc(Oc3ncnc4[nH]c(C5CC5)cc34)ccc21 [XV-42] | < 500 nM |
